Assay [1] in a line: 7-month study on body weight loss in 22 test persons administered creatine. It is filed as in vivo, human. As for the experimental part: An experiment was carried out with 22 test persons in order to confirm the weight reducing effect of creatine using the dosage according to the invention. The test persons were instructed for the duration of the experiment not to change their day-to-day habits (diet and physical exercise). In order to find the optimal dosage the test persons were initially divided into three groups with a daily dosage of either 100 mg, 300 mg or 600 mg of creatine. […] The data are reported as so-called body mass index (BMI), which is calculated from the body weight in dilograms divided by the height in meters in square.

For assay [2] the following is noted: cited from earlier work.

On to `CN(CC(=O)O)C(=N)N` [creatine, N-Amidinosarcosine], for which the “body weight, reported as body mass index (BMI)” value in assay [1] (7-month study, 22 test persons, after the 3 months dosage-finding period, single daily dose of 100 mg) is reported as “a steady decrease of body weight occured”. Also, in assay [1] (groups with daily dosage of 100 mg, 300 mg or 600 mg of creatine, after 3 months, diet and physical exercise unchanged), the “weight loss in dosage-finding period” value is given as “the group with 100 mg had shown the most noticeable weight loss”. Also, the body weight result in assay [2] (daily dosage of at least 15 g to 30 g (0.2 g to 0.4 g per kilogram body weight), physically active test persons, WO 94/02127, Sahelian, Gremion) was “enhancement of body weight”. The fat mass entry in assay [2] (high-dose creatine with high muscle strain, Sahelian 1997, Gremion 1995) is given as “the fat mass is decreased”.

The record behind these values is patent US6433015B1, “Method for reducing body weight” (IPR-Institute for Pharmaceutical Research AG, priority 1997, dated 2002).
